Where two headings read alike, the source gives them in different places. Residues, ends and D or L forms follow the SMILES beside them.
How the values were obtained:
KB-3-1 = experiment: MTT cytotoxicity of ABCB1 substrates with or without a reversal agent, KB-3-1; assay type: cell-based, human; details: no reversal agent; for IC50: mean ± SD, at least three independent experiments in triplicate, read-out: IC50 of the anticancer drug alone; for RF (resistant fold) of the anticancer drug alone: IC50 relative to drug alone in KB-3-1
From the text: (§1) The drug-selected ABCG2-overexpressing non-small cell lung cancer (NSCLC) cell line NCI-H460/MX20 and its parental NCI-H460 cell line, and the ABCB1 gene-transfected HEK293 cells, HEK293/ABCB1, and its parental empty vector transfected HEK293 cells, HEK293/pcDNA3.1 were provided by Drs. Susan E. Bates and Robert Robey (NIH, MD). The drug-resistant ABCB1 overexpressing human epidermal carcinoma cell line KB-C2 and its parental KB-3-1 cell line were generously provided by Dr. Shin-Ichi Akiyama (Kagoshima University, Kagoshima, Japan). All cell lines were cultured in complete Dulbecco’s modified Eagle’s medium(DMEM) (Hyclone, GE Healthcare Life Sciences, Pittsburgh, PA, USA) with the addition of 10% fetal bovine serum (FBS) and 1% penicillin/streptomycin (Hyclone, GE Healthcare Life Sciences, Pittsburgh, PA, USA). The transfected cell lines were selected in complete medium with addition of 2 mg/mL of Geneticin (Enzo Life Sciences, Farmingdale, NY, USA) for selection, KB-C2 cells were continually treated with complete medium and […], and NCI-H460/MX20 cells were cultured with 20 ng/mL mitoxantrone added to the complete medium. All drug-treated cell lines were recovered for more than 2 weeks without treatment before their use. The culture condition was in a humidified incubator at 37 °C with 5% CO2.
(§2) The final absorbance of each well was measured by Microplate Spectrophotometer (Fisher Sci., Fair Lawn, NJ, USA) at 570 nm.

KB-C2 = experiment: MTT cytotoxicity of ABCB1 substrates with or without a reversal agent, KB-C2; details: for RF (resistant fold) of the anticancer drug alone: IC50 in KB-C2 divided by IC50 in KB-3-1
From the text: as §1, §2

HEK293/pcDNA3.1 = experiment: MTT cytotoxicity of ABCB1 substrates with or without a reversal agent, HEK293/pcDNA3.1; assay type: cell-based; details: no reversal agent; for IC50: mean ± SD, at least three independent experiments in triplicate, read-out: IC50 of the anticancer drug alone; for RF (resistant fold) of the anticancer drug alone: relative to drug alone in HEK293/pcDNA3.1
From the text: as §1, §2

NCI-H460 = experiment: MTT cytotoxicity of ABCG2 substrates with or without a reversal agent, NCI-H460; assay type: cell-based, human; details: for IC50 / RF (resistant fold) of the anticancer drug alone: no reversal agent; for IC50: mean ± SD, at least three independent experiments in triplicate, read-out: IC50 of the anticancer drug alone; for RF (resistant fold) of the anticancer drug alone: relative to drug alone in NCI-H460
From the text: as §1, §2

NCI-H460/MX20 = experiment: MTT cytotoxicity of ABCG2 substrates with or without a reversal agent, NCI-H460/MX20; assay type: cell-based, human; details: for IC50: NCI-H460/MX20, mean ± SD, at least three independent experiments in triplicate, read-out: IC50 of the anticancer drug alone; for IC50 / RF (resistant fold) of the anticancer drug alone: no reversal agent
From the text: as §1, §2

in vitro = details: human
From the text: as §1, §2

parental cells (KB-3-1) = details: read-out: IC50 of peptide; KB-3-1 (parental); MTT, 570 nm; at least three independent triplicate experiments
From the text: as §1, §2

parental cells NCI-H460 = details: read-out: IC50 of peptide, MTT, 570 nm, at least three independent experiments in triplicate
From the text: as §1, §2

ABCB1 [1] = biological target: T1, ABCB1 (Homo sapiens, UniProt P08183); details: XH-14C 0–40 μM; vanadate-sensitive; phosphate read at 800 nm; three independent experiments
Procedure: The vanadate-sensitive membrane vesicles ABCB1 and ABCG2 ATPase activity were determined as previously described, and the ABCB1- and ABCG2-overexpressing cell membranes were purchased from BD Biosciences (San Jose, CA, USA). The ATPase activities were calculated based on the measurement of inorganic phosphate (IP)detected using a spectrophotometer at 800 nm.

HEK293/ABCB1 = experiment: MTT cytotoxicity of ABCB1 substrates with or without a reversal agent, HEK293/ABCB1; assay type: cell-based; details: no reversal agent; for IC50: HEK293/ABCB1, mean ± SD, at least three independent experiments in triplicate, read-out: IC50 of the anticancer drug alone; for RF (resistant fold) of the anticancer drug alone: IC50 in HEK293/ABCB1 divided by IC50 in HEK293/pcDNA3.1
From the text: as §1, §2

ABCB1 on KB-C2 cells = assay type: cell-based, human
Procedure: (§3) [^3H]-paclitaxel (31 Ci/mmol, Moravek Biochemicals, Brea, CA, USA) was used to measure the drug accumulation and efflux as previously described. The only difference is that after the cells were seeded evenly in 24-well plate, the cells were incubated in the presence or absence of XH-14C and a parallel positive reversal agent for […]. Liquid scintillation cocktail used to measure the radioactivity was purchased from MP Biomedicals, Inc (St. Ana, CA, USA) and the radioactivity of different groups were read with the Packard TRI-CARB1 190‘A liquid scintillation analyzer. A parallel well of cells for each group was set up for cell number counting at the end of the assay for the purpose of data normalization.

[2] = test system: ABCB1-overexpressing KB-C2 cells; assay type: cell-based, human
Procedure: as §3

KB-3-1 cells = experiment: [3H]-paclitaxel efflux assay in KB-3-1; assay type: cell-based, human; details: 2 h, with or without a reversal agent
Procedure: as §3

ABCB1 [3] = biological target: T1, ABCB1; design: purchased BD Biosciences (San Jose, CA, USA); method as in PMID 25456855; details: non-competitive inhibitor; cited from earlier work
[4] = KB-C2 cells (ABCB1-overexpressing human epidermal carcinoma)
[5] = NCI-H460/MX20 cells (ABCG2-overexpressing NSCLC)
[6] = Homo sapiens, KB-C2, read-out: IC50 of the anticancer drug alone
[7] = IC50 in NCI-H460/MX20 divided by IC50 in NCI-H460

T1 sequence (P08183 whole entry): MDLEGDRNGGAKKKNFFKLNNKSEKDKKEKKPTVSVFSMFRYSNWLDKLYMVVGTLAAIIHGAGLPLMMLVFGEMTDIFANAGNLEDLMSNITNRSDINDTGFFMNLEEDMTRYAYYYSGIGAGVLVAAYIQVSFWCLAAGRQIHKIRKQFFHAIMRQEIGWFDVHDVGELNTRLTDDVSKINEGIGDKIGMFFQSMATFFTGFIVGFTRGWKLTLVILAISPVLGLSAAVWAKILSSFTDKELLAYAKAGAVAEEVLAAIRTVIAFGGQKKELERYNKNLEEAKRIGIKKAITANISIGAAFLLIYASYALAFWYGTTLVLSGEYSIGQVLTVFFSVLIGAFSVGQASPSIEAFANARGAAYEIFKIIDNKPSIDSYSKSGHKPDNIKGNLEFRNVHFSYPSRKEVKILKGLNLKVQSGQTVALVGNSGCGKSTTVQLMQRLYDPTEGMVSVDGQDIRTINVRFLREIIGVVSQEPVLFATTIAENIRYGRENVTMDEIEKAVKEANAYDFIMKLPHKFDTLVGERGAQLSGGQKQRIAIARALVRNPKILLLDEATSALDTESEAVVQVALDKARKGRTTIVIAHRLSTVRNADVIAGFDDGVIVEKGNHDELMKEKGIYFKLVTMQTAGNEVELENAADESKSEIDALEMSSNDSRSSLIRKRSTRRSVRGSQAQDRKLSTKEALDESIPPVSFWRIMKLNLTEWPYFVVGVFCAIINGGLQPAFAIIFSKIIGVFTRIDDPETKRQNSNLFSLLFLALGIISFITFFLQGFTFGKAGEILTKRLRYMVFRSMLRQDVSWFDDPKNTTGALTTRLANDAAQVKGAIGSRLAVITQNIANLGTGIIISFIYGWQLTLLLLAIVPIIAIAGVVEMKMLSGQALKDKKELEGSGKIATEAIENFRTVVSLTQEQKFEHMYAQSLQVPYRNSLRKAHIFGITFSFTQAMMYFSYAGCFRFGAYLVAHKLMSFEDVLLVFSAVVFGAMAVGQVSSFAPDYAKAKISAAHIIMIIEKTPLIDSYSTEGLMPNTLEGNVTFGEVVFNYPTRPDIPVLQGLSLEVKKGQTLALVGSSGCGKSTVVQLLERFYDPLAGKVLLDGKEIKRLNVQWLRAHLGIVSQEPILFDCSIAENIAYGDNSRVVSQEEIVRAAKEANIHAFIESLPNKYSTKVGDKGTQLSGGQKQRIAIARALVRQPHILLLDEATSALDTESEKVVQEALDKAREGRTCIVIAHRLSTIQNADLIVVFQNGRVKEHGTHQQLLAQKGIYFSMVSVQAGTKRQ

## N.N.[Cl][Pt][Cl] [Cisplatin, cisplatin]
KB-3-1
  IC50: 1640 ± 487 nM
KB-C2; read-out: IC50 of the anticancer drug alone, KB-C2, no reversal agent, mean ± SD, at least three independent experiments in triplicate
  IC50: 1760 ± 377 nM
HEK293/pcDNA3.1
  IC50: 2280 ± 489 nM
NCI-H460
  IC50: 2760 ± 230 nM
NCI-H460/MX20
  IC50: 3.15 ± 0.47 µM

## CC[C@H](C)[C@H](NC(=O)[C@H](CCCNC(=N)N)NC(=O)[C@H](CCCCN)NC(=O)[C@@H](NC(=O)[C@@H](N)Cc1ccccc1)[C@@H](C)CC)C(=O)N[C@@H](C)C(=O)N[C@@H](CCCNC(=N)N)C(=O)N[C@@H](CC(C)C)C(=O)N[C@@H](CC(C)C)C(=O)N[C@@H](CCCNC(=N)N)C(=O)N[C@@H](CCCCN)C(=O)N[C@H](C(=O)N[C@@H](Cc1c[nH]c2ccccc12)C(=O)N[C@@H](CCCNC(=N)N)C(=O)O)[C@@H](C)CC [XH-14C] (H-FIKRIARLLRKIWR-OH)
In vitro; [4]
  IC50: 7.82 µM
In vitro; [5]
  IC50: 8.3 µM
Parental cells (KB-3-1)
  IC50: 8.12 µM
Parental cells NCI-H460
  IC50: 9.07 µM
KB-C2; non-substrate of ABCB1, all tested cell lines
  effect on cytotoxicity of cisplatin: no effect on the cytotoxicity of cisplatin
ABCB1 [1]
  maximal stimulation of ABCB1 ATPase activity: 3.28 fold

## CC[C@H](C)[C@H](NC(=O)[C@H](CCCNC(=N)N)NC(=O)[C@H](CCCCN)NC(=O)[C@@H](NC(=O)[C@@H](N)Cc1ccccc1)[C@@H](C)CC)C(=O)N[C@@H](C)C(=O)N[C@@H](CCCNC(=N)N)C(=O)N[C@@H](CC(C)C)C(=O)N[C@@H](CC(C)C)C(=O)N[C@@H](CCCNC(=N)N)C(=O)N[C@@H](CCCCN)C(=O)N[C@H](C(=O)N[C@@H](CCCCN)C(=O)N[C@@H](CCCNC(=N)N)C(=O)O)[C@@H](C)CC [XH-14A] (H-FIKRIARLLRKIKR-OH)
In vitro; [4]
  IC50: 22.4 µM
In vitro; [5]
  IC50: 8.22 µM
Parental cells (KB-3-1)
  IC50: 8.73 µM
Parental cells NCI-H460
  IC50: 10.1 µM

## COc1cccc2c1C(=O)c1c(O)c3c(c(O)c1C2=O)C[C@@](O)(C(=O)CO)C[C@@H]3O[C@H]1C[C@H](N)[C@H](O)[C@H](C)O1 [Doxorubicin, doxorubicin]
KB-3-1; Homo sapiens
  IC50: 1280 ± 189 nM
KB-3-1
  RF (resistant fold) of the anticancer drug alone: 1.00
KB-C2; [6]
  IC50: 67600 ± 2460 nM
KB-C2; no reversal agent
  RF (resistant fold) of the anticancer drug alone: 53.0
HEK293/pcDNA3.1; Homo sapiens
  IC50: 1226 ± 1.88 nM
HEK293/pcDNA3.1
  RF (resistant fold) of the anticancer drug alone: 1.00
HEK293/ABCB1
  IC50: 32.6 ± 4.81 µM
  RF (resistant fold) of the anticancer drug alone: 26.6

## CC(=O)O[C@H]1C(=O)[C@@]2(C)[C@H]([C@H](OC(=O)c3ccccc3)[C@]3(O)C[C@H](OC(=O)[C@H](O)[C@@H](NC(=O)c4ccccc4)c4ccccc4)C(C)=C1C3(C)C)[C@]1(OC(C)=O)CO[C@@H]1C[C@@H]2O [[^3H]-paclitaxel]
ABCB1 on KB-C2 cells
  decrease in intracellular [3H]-paclitaxel (efflux) without XH-14C: about 50%
[2]
  intracellular [3H]-paclitaxel in KB-C2, fold lower than in KB-3-1: more than 100 fold
KB-3-1 cells
  change of cellular [3H]-paclitaxel in KB-3-1: did not significantly change

## COc1ccc2c3c([nH]c2c1)[C@H](CC(C)C)N1C(=O)[C@H](CCC(=O)OC(C)(C)C)NC(=O)[C@@H]1C3 [Ko143]
NCI-H460; cisplatin + reversal agent 3 μM, relative to NCI-H460
  RF of cisplatin in combination with reversal agent: 1.26
NCI-H460; mitoxantrone + reversal agent 3 μM, relative to NCI-H460
  RF of mitoxantrone in combination with reversal agent: 1.10
NCI-H460; topotecan + reversal agent 3 μM, relative to NCI-H460
  RF of topotecan in combination with reversal agent: 0.76
NCI-H460/MX20; cisplatin + reversal agent 3 μM, IC50 in NCI-H460/MX20 divided by IC50 in NCI-H460
  RF of cisplatin in combination with reversal agent: 1.23
NCI-H460/MX20; mitoxantrone + reversal agent 3 μM, IC50 in NCI-H460/MX20 divided by IC50 in NCI-H460
  RF of mitoxantrone in combination with reversal agent: 2.28
NCI-H460/MX20; topotecan + reversal agent 3 μM, IC50 in NCI-H460/MX20 divided by IC50 in NCI-H460
  RF of topotecan in combination with reversal agent: 1.96

## COc1cc2c(cc1OC)CN(CCc1ccc(NC(=O)c3cc(OC)c(OC)cc3NC(=O)c3cnc4ccccc4c3)cc1)CC2 [tariquidar]
ABCB1 [3]
  ABCB1 ATPase stimulation: able to stimulate ABCB1 ATPase activity

## CC[C@@]1(O)C(=O)OCc2c1cc1n(c2=O)Cc2cc3c(CN(C)C)c(O)ccc3nc2-1 [Topotecan, topotecan]
NCI-H460; Homo sapiens
  IC50: 49 ± 6 nM
NCI-H460
  RF (resistant fold) of the anticancer drug alone: 1.00
NCI-H460/MX20; Homo sapiens
  IC50: 39.2 ± 4.85 µM
NCI-H460/MX20; [7]
  RF (resistant fold) of the anticancer drug alone: 799

## CC(=O)O[C@H]1C(=O)[C@@]2(C)[C@H]([C@H](OC(=O)c3ccccc3)[C@]3(O)C[C@H](OC(=O)[C@H](O)[C@@H](NC(=O)c4ccccc4)c4ccccc4)C(C)=C1C3(C)C)[C@]1(OC(C)=O)CO[C@@H]1C[C@@H]2O [Paclitaxel, paclitaxel]
KB-3-1; Homo sapiens
  IC50: 3 ± 0.5 nM
KB-3-1
  RF (resistant fold) of the anticancer drug alone: 1.00
KB-C2; [6]
  IC50: 1310 ± 271 nM
KB-C2; no reversal agent
  RF (resistant fold) of the anticancer drug alone: 437
HEK293/pcDNA3.1; Homo sapiens
  IC50: 14.3 ± 1.53 nM
HEK293/pcDNA3.1
  RF (resistant fold) of the anticancer drug alone: 1.00
HEK293/ABCB1
  IC50: 0.306 ± 0.0454 µM
  RF (resistant fold) of the anticancer drug alone: 21.38

## CC[C@H](C)[C@H](NC(=O)[C@H](CCCNC(=N)N)NC(=O)[C@H](CCCCN)NC(=O)[C@@H](NC(=O)[C@@H](N)Cc1ccccc1)[C@@H](C)CC)C(=O)N[C@@H](C)C(=O)N[C@@H](CCCNC(=N)N)C(=O)N[C@@H](CC(C)C)C(=O)N[C@@H](CC(C)C)C(=O)N[C@@H](CCCNC(=N)N)C(=O)N[C@@H](CCCCN)C(=O)N[C@H](C(=O)N[C@@H](Cc1ccccc1)C(=O)N[C@@H](CCCNC(=N)N)C(=O)O)[C@@H](C)CC [XH-14B] (H-FIKRIARLLRKIFR-OH)
In vitro; [4]
  IC50: 8.38 µM
In vitro; [5]
  IC50: 7.28 µM
Parental cells (KB-3-1)
  IC50: 10 µM
Parental cells NCI-H460
  IC50: 9.37 µM

## O=C1c2c(O)ccc(O)c2C(=O)c2c(NCCNCCO)ccc(NCCNCCO)c21 [Mitoxantrone, mitoxantrone]
NCI-H460; Homo sapiens
  IC50: 39 ± 5 nM
NCI-H460
  RF (resistant fold) of the anticancer drug alone: 1.00
NCI-H460/MX20; Homo sapiens
  IC50: 36.6 ± 4.53 µM
NCI-H460/MX20; [7]
  RF (resistant fold) of the anticancer drug alone: 937

From PMC7409168, “The Multidrug Resistance-Reversing Activity of a Novel Antimicrobial Peptide” (Cancers, 2020)
